From publication PMC2408617, “Gametogenesis in Malaria Parasites Is Mediated by the cGMP-Dependent Protein Kinase” (PLoS Biology, 2008)
Where two headings read alike, the source gives them in different places.

Key:
[1] = tested on: native PDE activity in P. falciparum particulate fractions; assay: PDE assay: cGMP hydrolysis by native parasite particulate fractions; assay type: biochemical, Plasmodium falciparum; conditions: for IC50: cGMP substrate; for effect on native PDE enzyme activity: parasite particulate fractions
Experimental: PDE activity in native parasite fractions was measured using a modification of a previously published method. Parasites were frozen in liquid nitrogen and stored at −80 °C until use. Parasites were resuspended in 500 μl of lysis buffer (20 mM hepes and 250 mM sucrose [pH 7.0]), subjected to five cycles of freeze–thaw in liquid nitrogen and pelleted at 100,000 g for 30 min. Particulate fractions were resuspended in lysis buffer containing EDTA-free protease inhibitors (Roche). PDE assays were carried out in triplicate wells of a 96-well plate in the presence of [^3H]-labelled cGMP (GE Healthcare) for 30 min at 37 °C. Reactions were terminated by boiling the plate for 1 min, followed by a 3-min centrifugation at 900 g. One unit of alkaline phosphatase was added to each well and incubated for 30 min at 37 °C. [^3H]-labelled guanosine was separated from the radiolabelled cGMP substrate using ion exchange (BioRad AG 1 × 8 resin). Supernatants containing the [^3H]-labelled guanosine product were added to scintillation fluid (Optiphase Supermix; Wallac). Scintillation was measured using a Wallac 1450 Microbeta Liquid Scintillation Counter (Perkin Elmer) and PDE activity was expressed in picomoles cGMP/minute/milligram protein. Inhibition assays were carried out in the presence of compounds dissolved in DMSO. PDE assays for specific activity and IC50 determination were carried out at a native lysate dilution that gave 30% cGMP/cAMP hydrolysis.
Supplementary file pbio.0060139.st001.doc: Table S1 The Effect of PDE Inhibitors on Particulate Fractions Isolated from P. falciparum Sexual and Asexual Blood Stage Parasites IC50 values (the concentration of compound that gave 50% inhibition of native PDE activity) are mean ± SEM in micromolar and were calculated using the Prism software package (GraphPad Software). Percentage inhibition data were fitted to a sigmoidal dose-response curve using nonlinear regression. n.d., not determined; >200, sufficient inhibition was not observed for an IC50 calculation. The specific activity of cGMP hydrolysis measured in the individual life cycle stages (at a substrate concentration of 0.82 μM) is listed in the lower row. Specific activity data are mean ± SEM in picomoles cGMP/minute/milligram. (43 KB DOC) Click here for additional data file.

Eimeria = conditions: cited from earlier work
PfPKGT618Q gametocytes = assay: Gametogenesis assay: rounding up, PfPKGT618Q gametocytes; assay type: cell-based, Plasmodium falciparum
Experimental: (§1) P. falciparum gametocytes were produced from the 3D7 clone in human A+ erythrocytes with 10% human serum (National Blood Service), and enriched using Nycodenz (Nycoprep 1.077; Axis-Shield) centrifugation as previously described. For gametogenesis, cells were resuspended at 5 × 10^6 parasites per millilitre and induced with either 20 μM XA or 25–400 μM zaprinast in complete medium, and a reduction (of >5 °C) in temperature. For gametogenesis assays, 10 min post induction, cells were mounted on a wet smear. […] Test reagents including zaprinast, BAPTA-AM, compound 1, and compound 2 were resuspended in DMSO as stock solutions and diluted in complete medium for gametogenesis assays, with the XA stock resuspended in RPMI 1640. The maximum final DMSO concentration in the gametogenesis medium was 0.4%, which was used as a negative control. […] Compound 1 and compound 2 were added at the point of activation with either XA or zaprinast, whereas cells were preincubated with 100 μM BAPTA-AM as previously described. Statistical multivariate analysis was carried out using Poisson regression (Stata 9.2; StataCorp) to compare the effects of genetic background (mutant vs. WT) and experimental replicate (included as categorical data in the analysis) on the rates of rounding up at individual drug concentrations. For each drug concentration, the mutants were tested separately against the WT control, and the resultant output was anti-logged to give the relative risk (and 95% confidence interval) for rounding up with genetic background.
Supplementary file pbio.0060139.st002.doc: Table S2 Poisson Regression Analysis for Compound 1 Sensitivity of Rounding Up of Both Mutants Compared to WT Each rounding-up measurement was made by counting 200 cells and scoring for rounding up (or not rounding up). At each compound 1 concentration, rounding-up replicate counts for both clones were compared to WT values separately by Poisson regression analysis using the Stata 9.2 package (StataCorp). Where n < 2 (indicated by n.d.), data were excluded from the analysis. Compound 1 concentration (comp1) is shown in micromolar. The p-values from this analysis and the relative risk (RR) of rounding up with genetic background (and 95% confidence intervals [CI]) are shown. (38 KB DOC) Click here for additional data file.

[2] = tested on: P. falciparum gametocytes; assay: Gametogenesis assay: exflagellation; assay type: cell-based, Plasmodium falciparum; conditions: for inhibition of exflagellation: gametocytes stimulated with XA or zaprinast
Experimental: as §1

T. gondii = conditions: cited from earlier work
[3] = tested on: P. falciparum gametocytes (WT / Pfrh3- control); assay: Gametogenesis assay: rounding up, WT/control gametocytes; assay type: cell-based, Plasmodium falciparum; conditions: for stimulation of rounding up: live gametocytes, zaprinast in absence of XA
Experimental: as §1

[4] = tested on: P. falciparum gametocytes; assay: Gamete emergence from erythrocytes, IFA with anti-Band 3 antibody; assay type: cell-based, Plasmodium falciparum; conditions: pretreatment with BAPTA-AM
Excerpt: Figure 2 Intracellular Ca^2+ Is Not Required for the Initial Step of P. falciparum Gametogenesis To investigate the role of intracellular Ca^2+ in rounding up and exflagellation, stage V Pfrh3^− control gametocytes were pretreated with the BAPTA-AM (BP) before stimulation of gametogenesis with either XA or zaprinast (ZP). (A) (Upper panel) Gametocytes were scored as either round or crescent-shaped, and plotted as percentage rounded-up. […] (Lower panel) The number of centres of exflagellation per 10,000 gametocytes was scored. […] (B) Emergence from host erythrocytes before and after stimulation of gametogenesis with or without BAPTA-AM was scored using IFA with an anti-erythrocyte Band 3 monoclonal antibody. The proportion of cells not reacting with the antibody (indicative of complete emergence) was counted and plotted as a percentage.
For IFA, 3 × 10^6 mature P. falciparum gametocytes were fixed in paraformaldehyde according to a method used for P. berghei. Cells were washed thoroughly and allowed to settle on wells coated with 0.01% poly-L-lysine solution. […] Digital images were recorded using a side-mounted 1K 1.3M pixel High Sensitivity AMT Advantage ER CCD camera system.

[5] = gametocyte particulate fraction, mean, read-out: IC50, inhibition of native PDE activity, Gametocyte
[6] = ring particulate fraction, read-out: IC50, inhibition of native PDE activity, Ring
[7] = schizont particulate fraction, read-out: IC50, inhibition of native PDE activity, Schizont

Structure (SMILES)	IC50 [1, 5] [µM]	IC50 [1, 6] [µM]	IC50 [1, 7] [µM]	effect on native PDE enzyme activity [1]	also measured
COc1ccc(C2CNC(=O)C2)cc1OC1CCCC1 (stereo not drawn) [Rolipram]	> 200	> 200	> 200	–	–
Cn1c(=O)c2[nH]cnc2n(C)c1=O [Theophylline]	> 200	–	> 200	little or no effect	–
COc1ccc(Cc2nccc3cc(OC)c(OC)cc23)cc1OC [Papaverine]	> 200	63.4	173	–	–
CCOC(=O)c1cnc2c(cnn2CC)c1NN=C(C)C [Etazolate]	–	20.7	17.6	–	–
CN(C)Cc1ccn2c(-c3ccnc(N)n3)c(-c3ccc(F)cc3)nc2c1 [compound 2, 4-[7-[(dimethylamino)methyl]-2-(4-fluorophenyl)imidazo[1,2-a]pyridine-3-yl]pyrimidin-2-amine]	–	–	–	–	effect on Eimeria infection in chickens (Eimeria): cure; inhibitory effects on rounding up of PfPKGT618Q gametocytes (PfPKGT618Q gametocytes; 2 μM, stimulation with zaprinast or XA): absence of inhibitory effects; lower sensitivity of PfPKGT618Q gametocytes than control cells (rounding up) (PfPKGT618Q gametocytes; range of inhibitor concentrations, approximately): 10–20 fold; inhibition of exflagellation [2]: inhibited exflagellation in a dose-dependent manner; difference in sensitivity of exflagellation between control and PfPKGT618Q cell lines ([2]; unpublished data): no significant difference in sensitivity; effect on infection by T. gondii in mice (T. gondii): cure
Cn1c(=O)c2c(ncn2C)n(C)c1=O [Caffeine]	> 200	–	> 200	little or no effect	–
CC(C)Cn1c(=O)n(C)c(=O)c2[nH]cnc21 [IBMX]	> 200	> 200	> 200	little or no effect	–
CCCc1nn(C)c2c(=O)[nH]c(-c3cc(S(=O)(=O)N4CCN(C)CC4)ccc3OCC)nc12 [Sildenafil]	75.6	19.4	22.5	–	–
CC(=O)OCOC(=O)CN(CC(=O)OCOC(C)=O)c1ccccc1OCCOc1ccccc1N(CC(=O)OCOC(C)=O)CC(=O)OCOC(C)=O [BAPTA-AM]	–	–	–	–	inhibition of rounding up ([3]; control gametocytes stimulated with XA (or zaprinast)): failed to inhibit the rounding up; emergence of gametes from erythrocytes [4]: reduced emergence of gametes from erythrocytes; inhibition of exflagellation [2]: blocked exflagellation
OCCN(CCO)c1nc(N2CCCCC2)c2nc(N(CCO)CCO)nc(N3CCCCC3)c2n1 [Dipyridamole]	> 200	6.5	7	–	–
CCCOc1ccccc1-c1nc2nn[nH]c2c(=O)[nH]1 [Zaprinast, zaprinast]	33.7 ± 1.3	3.5	3 ± 1.2	effective inhibitor	stimulation of rounding up [3]: stimulated rounding up; level of rounding up induced compared with XA ([3]; zaprinast 400 μM): almost equivalent to those triggered by XA; stimulation of exflagellation ([2]; in absence of XA): triggered both rounding up and exflagellation in a dose-dependent manner; level of exflagellation induced compared with XA ([2]; zaprinast 400 μM): almost equivalent to those triggered by XA
COc1cc2c(cc1OC)-c1c/c(=N\c3c(C)cc(C)cc3C)n(C)c(=O)n1CC2 [Trequinsin]	193	26.7	126	–	–
O=C(O)c1cc(O)c2cccc(O)c2n1 [XA, xanthurenic acid]	–	–	–	–	stimulation of rounding up [3]: became spherical
